ChEMBL document CHEMBL3885861, “Open TG-GATES”

Species: Rattus norvegicus
Experiment: Open TG-GATES - Regimen: Daily Repeat
Assay type: toxicity, organism-based, Sprague-Dawley
Design: regimen Daily Repeat, gender Male, age 6 weeks
Conditions: in vivo, po, route gavage; for ALT / AST / BUN / CRE / Ca / Cl / DBIL / GLC / IP / K / LDH / Na / PL / RALB / TBIL / TC / TG / TP / gamma-GTP / A/G / ALP: tissue Plasma; for APTT / Bas / Eos / Fbg / Hb / Ht / Lym / MCH / MCHC / MCV / Mono / Neu / PT / Plat / RBC / Ret / WBC: tissue Blood; for KIDNEY_L / KIDNEY_R / KIDNEY_TOTAL: tissue Kidney; for LIVER: tissue Liver
[1] = 30 mg/kg, […], dose level Low, time 14 day
[2] = 30 mg/kg, […], dose level Low, time 28 day
[3] = 100 mg/kg, 72 h, dose level Middle, time 3 day
[4] = 100 mg/kg, […], dose level Middle, time 7 day
[5] = 100 mg/kg, […], dose level Middle, time 14 day
[6] = 100 mg/kg, […], dose level Middle, time 28 day
[7] = 300 mg/kg, 72 h, dose level High, time 3 day
[8] = 300 mg/kg, […], dose level High, time 7 day
[9] = 300 mg/kg, […], dose level High, time 14 day

SMILES: CCc1cc(C(N)=S)ccn1 [ETHIONAMIDE]
- ALT [1]: 34.8 IU/L
- AST [1]: 62.4 IU/L
- BUN [1]: 17.6 mg/dL
- CRE [1]: 0.5 mg/dL
- Ca [1]: 10.8 mg/dL
- Cl [1]: 104.4 meq/L
- DBIL [1]: 0.026 mg/dL
- GLC [1]: 206.6 mg/dL
- IP [1]: 7.2 mg/dL
- K [1]: 4.4 meq/L
- LDH [1]: 95.4 IU/L
- Na [1]: 142.2 meq/L
- PL [1]: 152.2 mg/dL
- RALB [1]: 4.1 g/dL
- TBIL [1]: 0.3 mg/dL
- TC [1]: 70.4 mg/dL
- TG [1]: 107.6 mg/dL
- TP [1]: 5.9 g/dL
- gamma-GTP [1]: 1.8 IU/L
- A/G [2]: 2.2
- ALP [2]: 680.6 IU/L
- ALT [2]: 35.8 IU/L
- AST [2]: 60 IU/L
- BUN [2]: 21.2 mg/dL
- CRE [2]: 0.7 mg/dL
- Ca [2]: 10.1 mg/dL
- Cl [2]: 106 meq/L
- DBIL [2]: 0.022 mg/dL
- GLC [2]: 198.8 mg/dL
- IP [2]: 6.3 mg/dL
- K [2]: 4.6 meq/L
- LDH [2]: 95.2 IU/L
- Na [2]: 140.4 meq/L
- PL [2]: 143.8 mg/dL
- RALB [2]: 4.1 g/dL
- TBIL [2]: 0.3 mg/dL
- TC [2]: 71.4 mg/dL
- TG [2]: 129 mg/dL
- TP [2]: 6 g/dL
- gamma-GTP [2]: 1.6 IU/L
- TERMINAL_BW [3]: 233.1 g
- APTT [3]: 17.5 s
- Bas [3]: 0%
- Eos [3]: 1%
- Fbg [3]: 209 mg/dL
- Hb [3]: 14.5 g/dL
- Ht [3]: 42.6%
- Lym [3]: 67%
- MCH [3]: 21.7 pg
- MCHC [3]: 33.9%
- MCV [3]: 64 fL
- Mono [3]: 10.8%
- Neu [3]: 21.6%
- PT [3]: 11.6 s
- Plat [3]: 130 x10_4/uL
- RBC [3]: 666.2 x10_4/ul
- Ret [3]: 10.3%
- WBC [3]: 119.1 x10_2/uL
- KIDNEY_L [3]: 1.1 g
- KIDNEY_R [3]: 1.1 g
- KIDNEY_TOTAL [3]: 2.2 g
- LIVER [3]: 12.4 g
- A/G [3]: 2
- ALP [3]: 951.2 IU/L
- ALT [3]: 41.6 IU/L
- AST [3]: 65.6 IU/L
- BUN [3]: 17.4 mg/dL
- CRE [3]: 0.5 mg/dL
- Ca [3]: 10.5 mg/dL
- Cl [3]: 104.2 meq/L
- DBIL [3]: 0.032 mg/dL
- GLC [3]: 197.6 mg/dL
- IP [3]: 7.1 mg/dL
- K [3]: 4.7 meq/L
- LDH [3]: 94.2 IU/L
- Na [3]: 140.8 meq/L
- PL [3]: 125 mg/dL
- RALB [3]: 3.6 g/dL
- TBIL [3]: 0.2 mg/dL
- TC [3]: 65.4 mg/dL
- TG [3]: 59.2 mg/dL
- TP [3]: 5.4 g/dL
- gamma-GTP [3]: 1 IU/L
- TERMINAL_BW [4]: 267.6 g
- TERMINAL_BW [5]: 316.7 g
- TERMINAL_BW [6]: 405.2 g
- APTT [4]: 17 s
- Bas [4]: 0%
- Eos [4]: 1%
- Fbg [4]: 212 mg/dL
- Hb [4]: 14.2 g/dL
- Ht [4]: 42.3%
- Lym [4]: 68.6%
- MCH [4]: 20.9 pg
- MCHC [4]: 33.7%
- MCV [4]: 62.1 fL
- Mono [4]: 8.6%
- Neu [4]: 21.6%
- PT [4]: 11.7 s
- Plat [4]: 148.8 x10_4/uL
- RBC [4]: 681.8 x10_4/ul
- Ret [4]: 3.6%
- WBC [4]: 136.5 x10_2/uL
- APTT [5]: 17.7 s
- Bas [5]: 0%
- Eos [5]: 1.4%
- Fbg [5]: 221 mg/dL
- Hb [5]: 15.2 g/dL
- Ht [5]: 44.6%
- Lym [5]: 63.8%
- MCH [5]: 21.4 pg
- MCHC [5]: 34.2%
- MCV [5]: 62.6 fL
- Mono [5]: 4.4%
- Neu [5]: 30.4%
- PT [5]: 11.8 s
- Plat [5]: 131.1 x10_4/uL
- RBC [5]: 712 x10_4/ul
- Ret [5]: 4.9%
- WBC [5]: 203.6 x10_2/uL
- APTT [6]: 16.9 s
- Bas [6]: 0%
- Eos [6]: 1.6%
- Fbg [6]: 228.4 mg/dL
- Hb [6]: 15.9 g/dL
- Ht [6]: 46.2%
- Lym [6]: 72.4%
- MCH [6]: 20.4 pg
- MCHC [6]: 34.4%
- MCV [6]: 59.3 fL
- Mono [6]: 4.8%
- Neu [6]: 21.2%
- PT [6]: 11.7 s
- Plat [6]: 140.7 x10_4/uL
- RBC [6]: 780.4 x10_4/ul
- Ret [6]: 7.8%
- WBC [6]: 170.4 x10_2/uL
- KIDNEY_L [4]: 1.1 g
- KIDNEY_R [4]: 1.2 g
- KIDNEY_TOTAL [4]: 2.4 g
- KIDNEY_L [5]: 1.4 g
- KIDNEY_R [5]: 1.4 g
- KIDNEY_TOTAL [5]: 2.8 g
- KIDNEY_L [6]: 1.6 g
- KIDNEY_R [6]: 1.6 g
- KIDNEY_TOTAL [6]: 3.2 g
- LIVER [4]: 13.1 g
- LIVER [5]: 16 g
- LIVER [6]: 18.7 g
- A/G [4]: 1.8
- ALP [4]: 899 IU/L
- ALT [4]: 40.8 IU/L
- AST [4]: 66.8 IU/L
- BUN [4]: 15.8 mg/dL
- CRE [4]: 0.4 mg/dL
- Ca [4]: 10.4 mg/dL
- Cl [4]: 104 meq/L
- DBIL [4]: 0.088 mg/dL
- GLC [4]: 194.8 mg/dL
- IP [4]: 6.7 mg/dL
- K [4]: 4.6 meq/L
- LDH [4]: 106.2 IU/L
- Na [4]: 139.8 meq/L
- PL [4]: 122.2 mg/dL
- RALB [4]: 3.7 g/dL
- TBIL [4]: 0.3 mg/dL
- TC [4]: 62 mg/dL
- TG [4]: 52.2 mg/dL
- TP [4]: 5.7 g/dL
- gamma-GTP [4]: 2.4 IU/L
- A/G [5]: 2.6
- ALP [5]: 878.4 IU/L
- ALT [5]: 33.8 IU/L
- AST [5]: 58.8 IU/L
- BUN [5]: 16.8 mg/dL
- CRE [5]: 0.5 mg/dL
- Ca [5]: 10.5 mg/dL
- Cl [5]: 105 meq/L
- DBIL [5]: 0.034 mg/dL
- GLC [5]: 196.8 mg/dL
- IP [5]: 6.6 mg/dL
- K [5]: 4.4 meq/L
- LDH [5]: 82 IU/L
- Na [5]: 142.2 meq/L
- PL [5]: 125.2 mg/dL
- RALB [5]: 4.2 g/dL
- TBIL [5]: 0.3 mg/dL
- TC [5]: 60.6 mg/dL
- TG [5]: 65.8 mg/dL
- TP [5]: 5.8 g/dL
- gamma-GTP [5]: 1.4 IU/L
- A/G [6]: 2.1
- ALP [6]: 579.4 IU/L
- ALT [6]: 39.4 IU/L
- AST [6]: 56 IU/L
- BUN [6]: 19 mg/dL
- CRE [6]: 0.6 mg/dL
- Ca [6]: 9.9 mg/dL
- Cl [6]: 104.4 meq/L
- DBIL [6]: 0.016 mg/dL
- GLC [6]: 196 mg/dL
- IP [6]: 5.9 mg/dL
- K [6]: 4.6 meq/L
- LDH [6]: 86.2 IU/L
- Na [6]: 140 meq/L
- PL [6]: 121.6 mg/dL
- RALB [6]: 4.2 g/dL
- TBIL [6]: 0.3 mg/dL
- TC [6]: 62.4 mg/dL
- TG [6]: 60.4 mg/dL
- TP [6]: 6.2 g/dL
- gamma-GTP [6]: 1.8 IU/L
- TERMINAL_BW [7]: 204.1 g
- APTT [7]: 20 s
- Bas [7]: 0%
- Eos [7]: 1.4%
- Fbg [7]: 161.6 mg/dL
- Hb [7]: 17.1 g/dL
- Ht [7]: 50.4%
- Lym [7]: 59.8%
- MCH [7]: 21.7 pg
- MCHC [7]: 34.1%
- MCV [7]: 63.5 fL
- Mono [7]: 6.4%
- Neu [7]: 32.6%
- PT [7]: 16 s
- Plat [7]: 119.1 x10_4/uL
- RBC [7]: 794.4 x10_4/ul
- Ret [7]: 13.3%
- WBC [7]: 115.4 x10_2/uL
- KIDNEY_L [7]: 1 g
- KIDNEY_R [7]: 1 g
- KIDNEY_TOTAL [7]: 2 g
- LIVER [7]: 10.3 g
- A/G [7]: 2.3
- ALP [7]: 1108.2 IU/L
- ALT [7]: 72.6 IU/L
- AST [7]: 190.6 IU/L
- BUN [7]: 12.2 mg/dL
- CRE [7]: 0.5 mg/dL
- Ca [7]: 9.7 mg/dL
- Cl [7]: 106.2 meq/L
- DBIL [7]: 0.1 mg/dL
- GLC [7]: 172.6 mg/dL
- IP [7]: 7.6 mg/dL
- K [7]: 4.6 meq/L
- LDH [7]: 244 IU/L
- Na [7]: 139.4 meq/L
- PL [7]: 82.8 mg/dL
- RALB [7]: 3.4 g/dL
- TBIL [7]: 0.3 mg/dL
- TC [7]: 46.4 mg/dL
- TG [7]: 16 mg/dL
- TP [7]: 4.9 g/dL
- gamma-GTP [7]: 1.4 IU/L
- TERMINAL_BW [8]: 227.8 g
- APTT [8]: 21.4 s
- Bas [8]: 0.3%
- Eos [8]: 3.7%
- Fbg [8]: 206 mg/dL
- Hb [8]: 16 g/dL
- Ht [8]: 46.9%
- Lym [8]: 44.7%
- MCH [8]: 20.2 pg
- MCHC [8]: 34.1%
- MCV [8]: 59.2 fL
- Mono [8]: 9%
- Neu [8]: 42%
- PT [8]: 14.7 s
- Plat [8]: 109.9 x10_4/uL
- RBC [8]: 792.3 x10_4/ul
- Ret [8]: 2.8%
- WBC [8]: 127.9 x10_2/uL
- Bas [9]: 0%
- MCHC [9]: 34.2%
- KIDNEY_L [8]: 1 g
- KIDNEY_R [8]: 1 g
- KIDNEY_TOTAL [8]: 2.1 g
- KIDNEY_L [9]: 1 g
- KIDNEY_TOTAL [9]: 2.1 g
- LIVER [8]: 11.3 g
- A/G [8]: 1.7
- ALP [8]: 739.3 IU/L
- ALT [8]: 66 IU/L
- AST [8]: 129 IU/L
- BUN [8]: 12.7 mg/dL
- CRE [8]: 0.4 mg/dL
- Ca [8]: 10.1 mg/dL
- Cl [8]: 102.3 meq/L
- DBIL [8]: 0.0933 mg/dL
- GLC [8]: 143 mg/dL
- IP [8]: 7.2 mg/dL
- K [8]: 3.9 meq/L
- LDH [8]: 397.7 IU/L
- Na [8]: 136.7 meq/L
- PL [8]: 123.7 mg/dL
- RALB [8]: 3.6 g/dL
- TBIL [8]: 0.3 mg/dL
- TC [8]: 95.3 mg/dL
- TG [8]: 22.3 mg/dL
- TP [8]: 5.7 g/dL
- gamma-GTP [8]: 3.7 IU/L
- TBIL [9]: 0.3 mg/dL
- gamma-GTP [9]: 7 IU/L
